Measured values from PubChem BioAssay AID192 (DTP/NCI, 2004).
Values joined by “and” are separate entries in the source; they are usually repeats but may differ in a detail not shown here. Equal entries are not always repeated. Toxic doses and inconclusive results are not listed. How the source made its calls: active means survival T/C of 150% or more; inactive means T/C below 125% in these data.

Test system: BDF1 mice, B16 melanoma ip, median survival T/C
Experiment: NCI In Vivo Anticancer Drug Screen. Data for tumor model B16 Melanoma (intraperitoneal) in B6D2F1 (BDF1) mice
Conditions: endpoint: median survival time, higher = longer survival
Method in brief: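 In this screen, activity was judged from survival or tumor size in treated versus vehicle-treated tumor-bearing mice, reported as T/C.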

[1] = dose: 100.0 mg/kg/injection, schedule: Q01DX009 (ip), vehicle: saline with Tween-80
[2] = dose: 200.0 mg/kg/injection, schedule: Q01DX009 (ip), vehicle: saline with Tween-80
[3] = dose: 100.0 mg/kg/injection, schedule: Q04DX003 (ip), vehicle: Klucel (hydroxypropylcellulose) (HPC)
[4] = dose: 100.0 mg/kg/injection, schedule: Q01DX009 (ip), vehicle: Klucel (hydroxypropylcellulose) (HPC)
[5] = dose: 200.0 mg/kg/injection, schedule: Q01DX009 (ip), vehicle: Klucel (hydroxypropylcellulose) (HPC)
[6] = dose: 400.0 mg/kg/injection, schedule: Q01DX009 (ip), vehicle: Klucel (hydroxypropylcellulose) (HPC)
[7] = dose: 6.25 mg/kg/injection, schedule: Q01DX009 (ip), vehicle: Klucel (hydroxypropylcellulose) (HPC)
[8] = dose: 12.5 mg/kg/injection, schedule: Q01DX009 (ip), vehicle: Klucel (hydroxypropylcellulose) (HPC)
[9] = dose: 25.0 mg/kg/injection, schedule: Q01DX009 (ip), vehicle: Klucel (hydroxypropylcellulose) (HPC)
[10] = dose: 100.0 mg/kg/injection, schedule: Q04DX003 (ip), vehicle: saline
[11] = dose: 200.0 mg/kg/injection, schedule: Q04DX003 (ip), vehicle: saline
[12] = dose: 400.0 mg/kg/injection, schedule: Q04DX003 (ip), vehicle: saline
[13] = dose: 3.12 mg/kg/injection, schedule: Q01DX009 (ip), vehicle: Klucel (hydroxypropylcellulose) (HPC)
[14] = dose: 25.0 mg/kg/injection, schedule: Q01DX009 (ip), vehicle: saline with Tween-80
[15] = dose: 50.0 mg/kg/injection, schedule: Q01DX009 (ip), vehicle: saline with Tween-80

Measured: T/C

COc1ccc(C2=CC(=O)N(C(C)C)C2=O)cc1
inactive: dose: 20.0 mg/kg/injection, schedule: Q04DX003 (ip), vehicle: saline with Tween-80 109 % of control | dose: 40.0 mg/kg/injection, schedule: Q04DX003 (ip), vehicle: saline with Tween-80 113 % of control | dose: 80.0 mg/kg/injection, schedule: Q04DX003 (ip), vehicle: saline with Tween-80 111 % of control

O=CNC(CSSCC(NC=O)C(=O)O)C(=O)O (stereo not given)
inactive: [1] 93 % of control | [2] 95 % of control

COC(=O)CCCCCNC(=O)NCCCCCC(=O)OC
inactive: [3] 86 % of control | dose: 200.0 mg/kg/injection, schedule: Q04DX003 (ip), vehicle: Klucel (hydroxypropylcellulose) (HPC) 95 % of control | dose: 400.0 mg/kg/injection, schedule: Q04DX003 (ip), vehicle: Klucel (hydroxypropylcellulose) (HPC) 91 % of control

C=CCc1c(C)ccc(C)c1OC
inactive: dose: 25.0 mg/kg/injection, schedule: Q04DX003 (ip), vehicle: Klucel (hydroxypropylcellulose) (HPC) 102 % of control | dose: 50.0 mg/kg/injection, schedule: Q04DX003 (ip), vehicle: Klucel (hydroxypropylcellulose) (HPC) 101 % of control | [3] 93 % of control

CCOc1ccc(NC(=O)Nc2cccc(Cl)c2)cc1
inactive: [4] 100 % of control | [5] 93 % of control | [6] 96 % of control

Cc1cccc(C)c1N.[C-]#[O+].[C-]#[O+].[C-]#[O+].[Cr]
inactive: [7] 103 % of control | [8] 100 % of control | [9] 100 % of control and 112 % of control

CC(Cc1ccc2c(c1)OCO2)C(C)Cc1ccc2c(c1)OCO2 (stereo not given)
inactive: dose: 100.0 mg/kg/injection, schedule: Q01DX009 (ip), vehicle: other 94 % of control | dose: 200.0 mg/kg/injection, schedule: Q01DX009 (ip), vehicle: other 89 % of control | dose: 400.0 mg/kg/injection, schedule: Q01DX009 (ip), vehicle: other 89 % of control

CN(C)c1ccc(C(=O)c2ccc(N(C)C)cc2)cc1
inactive: [10] 104 % of control | [11] 111 % of control | [12] 100 % of control

S=c1[nH]c2ccccc2[nH]1
inactive: dose: 1.56 mg/kg/injection, schedule: Q01DX009 (ip), vehicle: Klucel (hydroxypropylcellulose) (HPC) 91 % of control | [13] 90 % of control | [7] 95 % of control | [8] 86 % of control | [9] 100 % of control

CC(CCC(=O)O)(c1cc(Cl)c(O)c(Cl)c1)c1cc(Cl)c(O)c(Cl)c1
inactive: dose: 25.0 mg/kg/injection, schedule: Q01DX009 (ip), vehicle: gum acacia 98 % of control | dose: 50.0 mg/kg/injection, schedule: Q01DX009 (ip), vehicle: gum acacia 115 % of control | dose: 100.0 mg/kg/injection, schedule: Q01DX009 (ip), vehicle: gum acacia 122 % of control

O=[N+]([O-])c1cccc2c(S(=O)(=O)O)cccc12
inactive: dose: 50.0 mg/kg/injection, schedule: Q01DX009 (ip), vehicle: saline 113 % of control | dose: 100.0 mg/kg/injection, schedule: Q01DX009 (ip), vehicle: saline 110 % of control | dose: 200.0 mg/kg/injection, schedule: Q01DX009 (ip), vehicle: saline 91 % of control

COC(=O)C1=C(O)CN(C)C1=O
inactive: dose: 37.5 mg/kg/injection, schedule: Q04DX003 (ip), vehicle: saline 102 % of control | dose: 75.0 mg/kg/injection, schedule: Q04DX003 (ip), vehicle: saline 100 % of control | dose: 150.0 mg/kg/injection, schedule: Q04DX003 (ip), vehicle: saline 108 % of control

O=C(Nc1ccccc1)Oc1ccc(Cl)cc1
inactive: [4] 93 % of control | [5] 94 % of control | [6] 99 % of control

CC(=O)Nc1ccn(C2OC(CO)C(O)C2O)c(=O)n1 (stereo not given)
inactive: [14] 88 % of control | [15] 97 % of control | [2] 92 % of control

CC(=O)c1ccccc1C
inactive: dose: 12.5 mg/kg/injection, schedule: Q01DX009 (ip), vehicle: saline with Tween-80 102 % of control | [14] 108 % of control | [15] 92 % of control and 123 % of control

O=C(O)C1(C(=O)O)CCCCC1.[NH-]CC1(C[NH-])CCCCC1.[Pt+2]
inactive: dose: 6.25 mg/kg/injection, schedule: Q01DX009 (ip), vehicle: saline 121 % of control | dose: 12.5 mg/kg/injection, schedule: Q01DX009 (ip), vehicle: saline 122 % of control | dose: 25.0 mg/kg/injection, schedule: Q01DX009 (ip), vehicle: saline 122 % of control

Cc1c2cnccc2c(C)c2c1c1ccccc1n2CC1CO1 (stereo not given)
inactive: dose: 3.75 mg/kg/injection, schedule: Q01DX009 (ip), vehicle: Klucel (hydroxypropylcellulose) (HPC) 117 % of control | dose: 7.5 mg/kg/injection, schedule: Q01DX009 (ip), vehicle: Klucel (hydroxypropylcellulose) (HPC) 114 % of control | dose: 15.0 mg/kg/injection, schedule: Q01DX009 (ip), vehicle: Klucel (hydroxypropylcellulose) (HPC) 121 % of control

COC(=O)c1ccc(C(=O)OC)[n+]([O-])c1
inactive: [10] 105 % of control | [11] 112 % of control | [12] 105 % of control

CCCCCCCCC(=O)N1CC(C)OC(C)C1 (stereo not given)
inactive: [4] 103 % of control | [5] 89 % of control | [6] 94 % of control

O=C1CN=C(c2ccccc2)c2cc([N+](=O)[O-])ccc2N1
inactive: dose: 0.02 mg/kg/injection, schedule: Q01DX009 (ip), vehicle: Klucel (hydroxypropylcellulose) (HPC) 100 % of control | dose: 0.04 mg/kg/injection, schedule: Q01DX009 (ip), vehicle: Klucel (hydroxypropylcellulose) (HPC) 103 % of control | dose: 0.09 mg/kg/injection, schedule: Q01DX009 (ip), vehicle: Klucel (hydroxypropylcellulose) (HPC) 105 % of control | dose: 0.19 mg/kg/injection, schedule: Q01DX009 (ip), vehicle: Klucel (hydroxypropylcellulose) (HPC) 101 % of control | dose: 0.39 mg/kg/injection, schedule: Q01DX009 (ip), vehicle: Klucel (hydroxypropylcellulose) (HPC) 98 % of control | [13] 86 % of control | [8] 90 % of control | dose: 50.0 mg/kg/injection, schedule: Q01DX009 (ip), vehicle: Klucel (hydroxypropylcellulose) (HPC) 99 % of control | [4] 86 % of control | [6] 86 % of control

C[n+]1c(/C=C/c2ccc(O)c3ncccc23)[se]c2ccccc21
inactive: dose: 0.38 mg/kg/injection, schedule: Q01DX009 (ip), vehicle: saline 102 % of control | dose: 0.75 mg/kg/injection, schedule: Q01DX009 (ip), vehicle: saline 109 % of control | dose: 1.5 mg/kg/injection, schedule: Q01DX009 (ip), vehicle: saline 106 % of control | dose: 3.0 mg/kg/injection, schedule: Q01DX009 (ip), vehicle: saline 109 % of control and 115 % of control | dose: 6.0 mg/kg/injection, schedule: Q01DX009 (ip), vehicle: saline 106 % of control and 124 % of control | dose: 12.0 mg/kg/injection, schedule: Q01DX009 (ip), vehicle: saline 115 % of control | dose: 24.0 mg/kg/injection, schedule: Q01DX009 (ip), vehicle: saline 122 % of control

COc1cccc(/C=C/[N+](=O)[O-])c1OC
inactive: dose: 35.0 mg/kg/injection, schedule: Q01DX009 (ip), vehicle: saline with Tween-80 117 % of control | dose: 70.0 mg/kg/injection, schedule: Q01DX009 (ip), vehicle: saline with Tween-80 104 % of control

Cc1ccc(NS(=O)(=O)c2cccc([N+](=O)[O-])c2)cc1Cl
inactive: [1] 107 % of control | [2] 105 % of control | dose: 400.0 mg/kg/injection, schedule: Q01DX009 (ip), vehicle: saline with Tween-80 96 % of control
